In patent publication US7396812B2, “Method for modulating Nod1 activity, use of a MTP related molecule for modulating Nod1 activity, and therapeutic applications thereof” (Institut Pasteur, priority 2003, dated 2008):
Entries after “also recorded” stand apart in the source; their conditions may differ. One block for each compound: values may come before it.

Tests used:
Nod2 [1] = biological target: T1, Nod2 (Homo sapiens, UniProt Q9HC29); assay: Nod2-dependent activation of NF-κB; assay type: cell-based; details: equivalent amounts (10 ng) of muropeptide
T1 construct: expressed in transfected cells
Description: (§1) Studies examining the activation of NF-κB by LPS, lipid A, lipoproteins or the purified PGNs in cells over-expressing Nod1 were carried out as described by Inohara et al. (N. Inohara et al., 2001). Briefly, HEK293 cells were transfected overnight with 10 ng of Nod1. At the same time, the LPS, lipoproteins or peptidoglycan preparations were added and the NF-κB-dependent luciferase activation was then measured following 24 h of co-incubation.
(§2) NF-κB-dependent luciferase assays were performed in duplicate and data represent at least 3 independent experiments.
In FIG. 2A, PGN muropeptides from N. meningitidis were separated by reverse-phase HPLC and subsequently analysed by mass spectroscopy (see supporting on-line text). N.D.(a), not determined for this particular HPLC fractionation, but found to be O-acetylated dimeric GM-tetrapeptide in subsequent HPLC fractionation and mass spectroscopy analyses. […] N.D.(b), fraction unknown. […] FIG. 2C is a schematic representation of N. meningitidis PGN detailing the Nod1-active motif from fraction 3 (GM-tripeptide) as determined by mass spectroscopy. In FIG. 2D, equivalent amounts (10 ng) of GM-dipeptide (GM-di; synthetic source), GM-tripeptide (GMtri), or GM-tetrapeptide (GM-tetra) were tested for stimulation of Nod1-, Nod2- or TLR2-dependent activation of NF-κB. […]

Nod2 [2] = biological target: T1, Nod2; details: previous findings, Girardin et al. 2003; Inohara et al. 2003; cited from earlier work
Nod1 [3] = biological target: T2, Nod1 (Homo sapiens, UniProt Q9Y239); assay: Nod1-dependent NF-κB-luciferase activation in Nod1-overexpressing HEK293 cells; assay type: cell-based; parameters: expressed in transfected cells; host or cells: HEK293; details: for activation of Nod1 by HPLC muropeptide fractions: N. meningitidis PGN muropeptide fractions, 1% of the volume of each fraction; for detection by Nod1 (Nod1-dependent activation of NF-κB): equivalent amounts (10 ng) of muropeptide; for stimulation of the Nod1 pathway (NF-κB activation): LPS, lipid A, lipoprotein preparations, 10 μg (10 μg/ml in b180)
T2 sequence (Q9Y239 1-953): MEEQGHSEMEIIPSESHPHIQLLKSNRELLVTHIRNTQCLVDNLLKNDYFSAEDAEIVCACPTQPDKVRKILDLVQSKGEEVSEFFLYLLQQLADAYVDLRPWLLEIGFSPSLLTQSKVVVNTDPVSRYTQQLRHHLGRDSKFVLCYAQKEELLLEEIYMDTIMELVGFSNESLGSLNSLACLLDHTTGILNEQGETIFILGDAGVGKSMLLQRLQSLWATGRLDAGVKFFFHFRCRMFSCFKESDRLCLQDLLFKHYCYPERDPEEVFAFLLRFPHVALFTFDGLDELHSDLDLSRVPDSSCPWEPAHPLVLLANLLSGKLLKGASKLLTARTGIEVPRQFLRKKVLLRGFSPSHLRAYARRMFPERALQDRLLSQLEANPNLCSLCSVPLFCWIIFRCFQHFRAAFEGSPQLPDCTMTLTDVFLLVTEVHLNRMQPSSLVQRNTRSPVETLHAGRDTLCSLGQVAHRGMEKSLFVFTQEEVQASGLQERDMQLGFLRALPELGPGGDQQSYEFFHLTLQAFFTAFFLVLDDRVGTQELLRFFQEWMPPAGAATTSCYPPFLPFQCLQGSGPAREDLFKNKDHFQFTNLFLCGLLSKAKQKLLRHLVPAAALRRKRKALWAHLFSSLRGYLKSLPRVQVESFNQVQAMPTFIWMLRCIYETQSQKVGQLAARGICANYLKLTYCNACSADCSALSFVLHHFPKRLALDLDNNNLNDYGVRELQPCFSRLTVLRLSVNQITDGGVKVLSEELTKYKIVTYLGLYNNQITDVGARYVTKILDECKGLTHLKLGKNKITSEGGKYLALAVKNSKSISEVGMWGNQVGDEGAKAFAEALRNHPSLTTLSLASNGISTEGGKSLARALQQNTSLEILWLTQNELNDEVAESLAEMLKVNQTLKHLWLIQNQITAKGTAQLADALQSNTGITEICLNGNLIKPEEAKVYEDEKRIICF
Description: as §1, §2

Nod1 [4] = biological target: T2, Nod1; assay: Nod1-dependent IL-8 production in HeLa epithelial cells (ELISA); assay type: cell-based; parameters: expressed in transfected cells; details: HeLa cells transfected with 10 ng Nod1 plus muropeptide, 18 h
Description: To measure Nod1-dependent IL-8 produced in epithelial cells by muropeptides, 5×10^5 HeLa cells were seeded into each well of a twelve well plate and transfected the following day with 10 ng Nod1 plus the individual muropeptides (as described above) or treated with IL-1 as a positive control. Eighteen hours later, supernatants were collected and assayed for IL-8 as previously described (D. J. Philpott et al., 2000) using an ELISA kit (R and D Systems).

[5] = system: NF-κB p65 in isolated intestinal epithelial cells; assay: NF-κB p65 nuclear translocation in isolated intestinal epithelial cells from wild-type or Nod1-deficient mice; assay type: cell-based; details: supernatants microinjected, TNFα 10 ng/ml
Description: At least 50 microinjected cells were examined per coverslip and experiments were performed at least 2 times independently with similar results.
Microinjection of Gram-negative but not Gram-positive bacterial supernatants activates NF-κB in isolated intestinal epithelial cells from wild-type mice, as observed by nuclear translocation of the p65 subunit of NF-κB (as described in FIG. 3B).

T1 sequence (Q9HC29 whole entry): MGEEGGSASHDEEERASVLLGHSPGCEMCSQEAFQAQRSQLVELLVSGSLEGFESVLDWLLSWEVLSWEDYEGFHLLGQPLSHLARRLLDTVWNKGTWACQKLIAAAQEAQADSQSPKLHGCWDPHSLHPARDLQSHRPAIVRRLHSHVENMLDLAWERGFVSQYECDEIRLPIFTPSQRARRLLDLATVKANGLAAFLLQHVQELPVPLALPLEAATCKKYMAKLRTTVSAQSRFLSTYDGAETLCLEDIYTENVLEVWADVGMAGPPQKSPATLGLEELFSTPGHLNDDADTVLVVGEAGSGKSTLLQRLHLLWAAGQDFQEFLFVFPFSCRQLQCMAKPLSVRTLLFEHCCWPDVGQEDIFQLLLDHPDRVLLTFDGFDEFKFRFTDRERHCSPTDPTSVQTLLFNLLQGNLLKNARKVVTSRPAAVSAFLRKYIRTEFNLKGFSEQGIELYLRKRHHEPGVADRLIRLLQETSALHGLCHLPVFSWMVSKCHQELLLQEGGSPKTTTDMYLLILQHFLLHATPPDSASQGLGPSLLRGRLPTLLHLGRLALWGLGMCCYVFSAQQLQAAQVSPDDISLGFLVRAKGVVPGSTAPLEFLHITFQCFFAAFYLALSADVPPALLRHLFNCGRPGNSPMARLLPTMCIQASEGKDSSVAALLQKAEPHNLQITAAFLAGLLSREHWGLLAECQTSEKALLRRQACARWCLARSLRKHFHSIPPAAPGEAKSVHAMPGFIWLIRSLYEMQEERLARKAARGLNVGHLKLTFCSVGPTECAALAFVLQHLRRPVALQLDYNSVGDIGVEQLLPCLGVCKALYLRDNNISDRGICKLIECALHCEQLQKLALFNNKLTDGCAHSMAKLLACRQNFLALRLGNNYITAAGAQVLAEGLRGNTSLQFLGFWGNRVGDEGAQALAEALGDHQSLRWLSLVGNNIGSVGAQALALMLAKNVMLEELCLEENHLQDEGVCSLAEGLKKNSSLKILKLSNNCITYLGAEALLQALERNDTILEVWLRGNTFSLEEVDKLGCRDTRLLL

Compound: CC(=O)N[C@H]1[C@H](O[C@H]2[C@H](O[C@H](C)C(=O)N[C@@H](C)C(=O)N[C@H](CCC(=O)O)C(N)=O)[C@@H](NC(C)=O)C(O)O[C@@H]2CO)O[C@H](CO)[C@@H](O)[C@@H]1O (stereo partly drawn) [GM-dipeptide]
detection by Nod2 (Nod2-dependent activation of NF-κB) (Nod2 [1]): detects

Compound: CC(=O)N[C@@H]1[C@@H](O[C@H](C)C(=O)N[C@@H](C)C(=O)N[C@H](CCC(=O)O)C(N)=O)[C@H](O)[C@@H](CO)O[C@H]1O [M-dipeptide]
recognition by Nod2 (Nod2 [2]): recognizes

detection by Nod1 of peptidoglycan structures (FIG. 8) (Nod1 [3]): detects
Compound: CC(=O)NC1C(O)OC(CO)C(O)C1OC(C)C(=O)NC(C)C(=O)NC(CCC(=O)NC(CCCC(N)C(=O)O)C(=O)O)C(=O)O (stereo not drawn) [MurTriDAP]

Compound: C[C@H](N)C(=O)N[C@H](CCC(=O)NC(CCCC(N)C(=O)O)C(=O)O)C(=O)O (stereo partly drawn) [TriDAP]
detection by Nod1 of peptidoglycan structures (FIG. 8) (Nod1 [3]): detects

detection by Nod1 of peptidoglycan structures (FIG. 8) (Nod1 [3]): detects
Compound: CC(=O)N[C@H]1[C@@H](OP(=O)(O)OP(=O)(O)OC[C@H]2O[C@@H](n3ccc(=O)[nH]c3=O)[C@H](O)[C@@H]2O)O[C@H](CO)[C@@H](O)[C@@H]1O[C@H](C)C(=O)N[C@@H](C)C(=O)N[C@H](CCC(=O)N[C@@H](CCC[C@@H](N)C(=O)O)C(=O)O)C(=O)O [UDP-MurTriDAP]

Compound: C[C@H](N)C(=O)N[C@H](CCC(=O)NC(CCCC(N)C(=O)O)C(=O)O)C(=O)O (stereo partly drawn) [tripeptide L-Ala-D-Glu-mesoDAP, L-Ala-D-Glu-mesoDAP]
detection by Nod1 of peptidoglycan structures (FIG. 8) (Nod1 [3]): able to sense

Compound: GlcNAc-MurNAc-L-Ala-D-Glu-mesoDAP [GM-tripeptide]
detection by Nod1 of peptidoglycan structures (FIG. 8) (Nod1 [3]): detects
activation of Nod1 by HPLC muropeptide fractions (Nod1 [3]; listed as fraction 3): activates Nod1; also recorded: able to activate Nod1
detection by Nod1 (Nod1-dependent activation of NF-κB) (Nod1 [3]): specifically detects
production of IL-8 (Nod1 [4]): production of the pro-inflammatory chemokine, IL-8; also recorded: leads to the production

Compound: GlcNAc-MurNAc-L-Ala-D-Glu-mesoDAP(GlcNAc-MurNAc-L-Ala-D-Glu-mesoDAP-D-Ala)-D-Ala [dimeric GM-tetrapeptide]
activation of Nod1 by HPLC muropeptide fractions (Nod1 [3]): does not activate Nod1

Compound: GlcNAc-MurNAc-L-Ala-D-Glu-mesoDAP-DAla [GM-tetrapeptide]
detection by Nod1 (Nod1-dependent activation of NF-κB) (Nod1 [3]): not sensed by Nod1

Compound: GlcNAc-anhydro-MurNAc-L-Ala-D-GlumesoDAP [anhydrous GM-tripeptide]
activation of Nod1 by HPLC muropeptide fractions (Nod1 [3]): active molecule in fraction 17

Compound: Lpp: the most abundant lipoprotein in E. coli (lipidated)
stimulation of the Nod1 pathway (NF-κB activation) (Nod1 [3]): fail to activate the Nod1 pathway; also recorded: not possible to stimulate the Nod1 pathway

Compound: Pam3Cys-Ser-Lys4-OH [synthetic lipopeptide]
stimulation of the Nod1 pathway (NF-κB activation) (Nod1 [3]): not possible to stimulate the Nod1 pathway
stimulation of the Nod1 pathway (NF-κB activation) (Nod1 [3]; listed as lipopeptide): fail to activate the Nod1 pathway

Compound: TNFα
NF-κB nuclear translocation in Nod1-deficient cells [5]: can efficiently stimulate NF-κB nuclear translocation

stimulation of the Nod1 pathway (NF-κB activation) (Nod1 [3]): could not stimulate the Nod1 pathway
Compound: lipid A
